ChEMBL document CHEMBL6096728, “Simultaneous Induction of Immunogenic Pyroptosis and PD-L1 Downregulation by One Single Photosensitizer for Synergistic Cancer Photoimmunotherapy” (J Med Chem, 2025)
The source made the active and inactive calls. The calls are words filed in the database; no cut-off is given here.

Assays:
[1] = Induction of singlet oxygen production in acetonitrile solution assessed as decrease in ABDA absorption under LED light irradiation at 20 mW.cm/2 measured upto 30 mins by microplate reader analysis; type: functional
[2] = Drug uptake in mouse 4T1 cells assessed as increase in fluorescence intensity at 2.5 uM measured after 180 mins by flow cytometry analysis; type: ADME, cell-based; settings: 4t1, 3 h
4T1 [3] = assay: Cytotoxicity against mouse 4T1 cells at 0.01 to 10 uM incubated for 2 hrs under dark condition by CCK-8 method; type: functional, cell-based; settings: dose 0.01-10 µM
[4] = Phototoxicity against human MDA-MB-231 cells preincubated for 2 hrs followed by light irradiation of 20 mW.cm/2 at 400 at 700nm for 24 hrs by CCK-8 method; type: functional, cell-based; settings: MDA-MB-231, light or radiation study
[5] = Phototoxicity against mouse 4T1 cells preincubated for 24 hrs followed by light irradiation of 20 mW.cm/2 at 400 to 700nm for 10 mins under hypoxia condition by CCK-8 method; type: functional, cell-based; settings: 4T1, light or radiation study
4T1 [6] = assay: Induction of cell death in mouse 4T1 cells assessed as decrease in green fluorescence at 0.5 uM incubated for 24 hrs followed by light irradiation of 20 mW.cm/2 at 400 to 700nm for 10 mins by Calcein-AM/PI staining based analysis; type: functional
MDA-MB-231 [7] = assay: Inhibition of human MDA-MB-231 cells at 0.1 uM under light irradiation of 20 mW.cm/2 at 400 to 700nm measured after 14 days by crystal violet staining based assay; type: functional, cell-based; settings: time 14.0 day
4T1 [8] = assay: Inhibition of mouse 4T1 cells at 0.1 uM under light irradiation of 20 mW.cm/2 at 400 to 700nm measured after 14 days by crystal violet staining based assay; type: functional, cell-based; settings: time 14.0 day
MDA-MB-231 [9] = assay: Induction of pyroptosis in human MDA-MB-231 cells assessed as formation of bubble-like protrusion on cell surface at 0.25 uM preincubated with compound for 12 hrs followed by light irradiation of 20 mW.cm/2 at 400 to 700nm for 10 mins by confocal fluorescence microscopy analysis; type: functional, cell-based
MDA-MB-231 [10] = assay: Induction of pyroptosis in human MDA-MB-231 cells assessed as cell swelling at 0.5 uM preincubated with compound for 4 hrs followed by light irradiation of 20 mW.cm/2 at 400 to 700nm for 10 mins by confocal fluorescence microscopy analysis; type: functional, cell-based
4T1 [11] = assay: Induction of pyroptosis in mouse 4T1 cells assessed as cell swelling at 0.5 uM preincubated with compound for 4 hrs followed by light irradiation of 20 mW.cm/2 at 400 to 700nm for 10 mins by confocal fluorescence microscopy analysis; type: functional, cell-based
MDA-MB-231 [12] = assay: Induction of pyroptosis in human MDA-MB-231 cells assessed as appearance of large bubbles in cell at 0.5 uM preincubated with compound for 4 hrs followed by light irradiation of 20 mW.cm/2 at 400 to 700nm for 10 mins by confocal fluorescence microscopy analysis; type: functional, cell-based
MDA-MB-231 [13] = assay: Induction of pyroptosis in human MDA-MB-231 cells assessed as upregulation of caspase-3 expression level at 0.1 to 0.5 uM incubated with compound for 12 hrs under dark condition by Western blot analysis; type: functional, cell-based; settings: dose 0.1-0.5 µM
MDA-MB-231 [14] = assay: Induction of pyroptosis in human MDA-MB-231 cells assessed as increase in LDH release at 0.1 to 0.5 uM incubated for 12 hrs under light irradiation of 20 mW.cm/2 at 400 to 700nm for 10 mins; type: functional, cell-based; settings: dose 0.1-0.5 µM
MDA-MB-231 [15] = assay: Downregulation of PD-L1 expression level in human MDA-MB-231 cells at 0.1 to 0.5 uM incubated for 24 hrs under light irradiation of 20 mW.cm/2 at 400 to 700nm for 10 mins by Western blot analysis; type: functional, cell-based; settings: dose 0.1-0.5 µM
MDA-MB-468 = assay: Downregulation of PD-L1 expression level in human MDA-MB-468 cells at 0.1 to 0.5 uM incubated for 24 hrs under light irradiation of 20 mW.cm/2 at 400 to 700nm for 10 mins by Western blot analysis; type: functional, cell-based; settings: dose 0.1-0.5 µM
Homo sapiens = species: Homo sapiens; assay: Binding affinity to PD-L1 (unknown origin) by streptavidin-biotin pull down assay
MDA-MB-231 [16] = assay: Photocytotoxicity in human MDA-MB-231 cells assessed as cell viablity incubated for 24 hrs under light irradiation of 50 mW.cm/2 at 400 to 700nm measured after 10 mins in hypoxia condition by CCK-8 method; type: functional, cell-based; settings: MDA-MB-231, light or radiation study
[17] = Drug accumulation in BALB/c mouse tumor implanted with mouse 4T1 cells assessed as increase in fluorescence intensity at 25 mg/kg, iv measured after 0 to 3 hrs by imaging based analysis; type: ADME, organism-based, Neoplasm; settings: in vivo, time 0-3 hrs
4T1 [18] = assay: Antitumor activity against mouse 4T1 cells implanted in BALB/c mouse model assessed as reduction in tumor volume at 25 mg/kg, iv measured after 14 days; type: functional, organism-based; settings: time 14.0 day
[19] = Toxicity in BALB/c mouse assessed as effect on tumor at 25 mg/kg, iv measured after 14 days by H and E staining based analysis; type: organism-based; settings: in vivo, 336 h, time 14 day
[20] = Toxicity in BALB/c mouse assessed as effect on liver at 25 mg/kg, iv measured after 14 days by H and E staining based analysis; type: organism-based; settings: in vivo, 336 h, time 14 day
[21] = Toxicity in BALB/c mouse assessed as effect on lung at 25 mg/kg, iv measured after 14 days by H and E staining based analysis; type: organism-based; settings: in vivo, 336 h, time 14 day
[22] = Toxicity in BALB/c mouse assessed as effect on tumor at 25 mg/kg, iv measured after 14 days under light irradiation of 300 mW.cm/2 at 400 to 700nm measured after 5 mins by H and E staining based analysis; type: organism-based; settings: in vivo, 336 h, 0.7 µM, time 14 day
[23] = Toxicity in BALB/c mouse assessed as effect on heart at 25 mg/kg, iv measured after 14 days under light irradiation of 300 mW.cm/2 at 400 to 700nm measured after 5 mins by H and E staining based analysis; type: organism-based; settings: in vivo, 336 h, 0.7 µM, time 14 day
[24] = Toxicity in BALB/c mouse assessed as effect on spleen at 25 mg/kg, iv measured after 14 days under light irradiation of 300 mW.cm/2 at 400 to 700nm measured after 5 mins; type: organism-based; settings: in vivo, 336 h, 0.7 µM, time 14 day
[25] = Toxicity in BALB/c mouse assessed as effect on platelets at 25 mg/kg, iv measured after 14 days; type: organism-based; settings: in vivo, 336 h, time 14 day
[26] = Toxicity in BALB/c mouse assessed as effect on hemoglobin at 25 mg/kg, iv measured after 14 days under light irradiation of 300 mW.cm/2 at 400 to 700nm measured after 5 mins; type: organism-based; settings: in vivo, 336 h, 0.7 µM, time 14 day
4T1 [27] = assay: Antitumor immunity against mouse 4T1 cells implanted in BALB/c mouse model assessed as increase of CD4+ T cells in lymph node at 25 mg/kg, iv measured after 14 days under light irradiation of 300 mW.cm/2 at 400 to 700nm measured after 5 mins […]; type: functional, organism-based; settings: time 14.0 day
4T1 [28] = assay: Antitumor immunity against mouse 4T1 cells implanted in BALB/c mouse model assessed as increase of CD8+ T cells in lymph node at 25 mg/kg, iv measured after 14 days under light irradiation of 300 mW.cm/2 at 400 to 700nm measured after 5 mins […]; type: functional, organism-based; settings: time 14.0 day

For `O=c1cc2sc3cc(N4CCNCC4)ccc3nc-2c2ccccc12`, the Activity [1] was “Active”, the Drug uptake [2] was “Active” and the Activity (4T1 [3]) was “Active; Compound Showed Low Toxicity”. The IC50 [4] was 0.164 µM, the IC50 [5] was 0.693 µM and the Activity (4T1 [6]) was “Active”. For the same compound, the inhibition (MDA-MB-231 [7]) was “Active”, the inhibition (4T1 [8]) was “Active” and the Activity (MDA-MB-231 [9]) was “Active”. The Activity (MDA-MB-231 [10]) was “Active”, the Activity (4T1 [11]) was “Active” and the Activity (MDA-MB-231 [12]) was “Active”. For the same compound, the Activity (MDA-MB-231 [13]) was “Active; Compound Showed Negligible Changes”, the Activity (MDA-MB-231 [14]) was “Active” and the Activity (MDA-MB-231 [15]) was “Active”. For the same compound, the Activity (MDA-MB-468) was “Active”, the Activity (Homo sapiens) was “Not active; Compound Rarely Binds To Pd-L1” and the IC50 (MDA-MB-231 [16]) was 0.983 µM. The Drug uptake [17] was “Active”, the Activity (4T1 [18]) was “Active” and the Activity [19] was “Toxic”. For the same compound, the Activity [20] was “Non-toxic”, the Activity [21] was “Non-toxic” and the Activity [22] was “Toxic”. The Activity [23] was “Non-toxic”, the Activity [24] was “Non-toxic” and the Activity [25] was “Non-toxic”. The Activity [26] was “Non-toxic”, the Activity (4T1 [27]) was “Active” and the Activity (4T1 [28]) was “Active”.
